Measured values published in the supplement of paper PMC10307832.

Experiments:
Test in all cases: relative viability (nuclei count vs DMSO), 5 days (fraction); higher = more cells survive
Sorafenib + Palbociclib = compound: CNC(=O)c1cc(Oc2ccc(NC(=O)Nc3ccc(Cl)c(C(F)(F)F)c3)cc2)ccn1 [Sorafenib] + CC(=O)c1c(C)c2cnc(Nc3ccc(N4CCNCC4)cn3)nc2n(C2CCCC2)c1=O [Palbociclib] (partner 0.5 µM)
Method in brief: (§1)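 Lung cancer cell lines were pin-tool dosed in 1536-well plates on the day after seeding, with either a lone drug or a fixed anchor-drug dose plus five library-drug doses (not always all listed) in √10 steps. Nuclei were counted on 4× images after 5 days. Relative viability is the ratio of treated-well to vehicle-well nuclei counts, with each value a median of duplicate plates.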

Sorafenib + Linsitinib = compound: CNC(=O)c1cc(Oc2ccc(NC(=O)Nc3ccc(Cl)c(C(F)(F)F)c3)cc2)ccn1 [Sorafenib] + C[C@]1(O)C[C@@H](c2nc(-c3ccc4ccc(-c5ccccc5)nc4c3)c3c(N)nccn32)C1 [Linsitinib] (partner 1 µM)
Method in brief: as §1

Sorafenib + Tozasertib = compound: CNC(=O)c1cc(Oc2ccc(NC(=O)Nc3ccc(Cl)c(C(F)(F)F)c3)cc2)ccn1 [Sorafenib] + Cc1cc(Nc2cc(N3CCN(C)CC3)nc(Sc3ccc(NC(=O)C4CC4)cc3)n2)n[nH]1 [Tozasertib] (partner 0.1 µM)
Method in brief: as §1

Sorafenib + Dasatinib = compound: CNC(=O)c1cc(Oc2ccc(NC(=O)Nc3ccc(Cl)c(C(F)(F)F)c3)cc2)ccn1 [Sorafenib] + Cc1nc(Nc2ncc(C(=O)Nc3c(C)cccc3Cl)s2)cc(N2CCN(CCO)CC2)n1 [Dasatinib] (partner 0.075 µM)
Method in brief: as §1

Sorafenib + Decitabine = compound: CNC(=O)c1cc(Oc2ccc(NC(=O)Nc3ccc(Cl)c(C(F)(F)F)c3)cc2)ccn1 [Sorafenib] + Nc1ncn([C@H]2C[C@H](O)[C@@H](CO)O2)c(=O)n1 [Decitabine] (partner 2 µM)
Method in brief: as §1

Cell Line | relative viability (Sorafenib + Palbociclib; first compound 0.08 µM) | relative viability (Sorafenib + Palbociclib; first compound 0.253 µM) | relative viability (Sorafenib + Palbociclib; first compound 2.53 µM) | relative viability (Sorafenib + Palbociclib; first compound 8 µM) | relative viability (Sorafenib + Linsitinib; first compound 0.08 µM) | relative viability (Sorafenib + Linsitinib; first compound 0.253 µM) | relative viability (Sorafenib + Linsitinib; first compound 2.53 µM) | relative viability (Sorafenib + Linsitinib; first compound 8 µM) | relative viability (Sorafenib + Tozasertib; first compound 0.08 µM) | relative viability (Sorafenib + Tozasertib; first compound 0.253 µM) | relative viability (Sorafenib + Tozasertib; first compound 2.53 µM) | relative viability (Sorafenib + Dasatinib; first compound 0.08 µM) | relative viability (Sorafenib + Dasatinib; first compound 0.253 µM) | relative viability (Sorafenib + Dasatinib; first compound 2.53 µM) | relative viability (Sorafenib + Dasatinib; first compound 8 µM) | relative viability (Sorafenib + Decitabine; first compound 0.08 µM) | relative viability (Sorafenib + Decitabine; first compound 0.253 µM) | relative viability (Sorafenib + Decitabine; first compound 2.53 µM) | relative viability (Sorafenib + Decitabine; first compound 8 µM) | relative viability (Sorafenib + Tozasertib; first compound 8 µM)
NCI-H661 | 0.4 | 0.408 | 0.385 | 0.289 | 0.816 | 0.57 | 0.55 | 0.417 | 0.35 | 0.378 | 0.333 | 0.978 | 0.82 | 0.815 | 0.215 | 0.57 | 0.503 | 0.531 | 0.356 | –
NCI-H727 | 0.688 | 0.616 | 0.681 | 0.569 | 0.29 | 0.226 | 0.33 | 0.231 | 0.643 | 0.638 | 0.555 | 0.481 | 0.453 | 0.399 | 0.232 | 0.988 | 0.947 | 0.805 | 0.781 | 0.487
NCI-H838 | 0.25 | 0.223 | 0.286 | 0.158 | 1.1 | – | 1.24 | 0.485 | 0.278 | 0.261 | 0.284 | 0.285 | 0.277 | 0.318 | 0.293 | 0.507 | 0.454 | 0.429 | 0.373 | 0.197
NCI-H1355 | 0.421 | 0.41 | 0.431 | 0.39 | 0.925 | 0.823 | 0.785 | 0.781 | 0.55 | 0.592 | 0.416 | 0.74 | 0.627 | 0.816 | 0.54 | 0.353 | 0.308 | 0.336 | 0.321 | 0.354
NCI-H1395 | 0.696 | – | 0.613 | 0.644 | 1.15 | 0.901 | 0.991 | 1.13 | 0.748 | 0.729 | 0.8 | 0.454 | 0.371 | 0.423 | 0.329 | 0.732 | – | 0.772 | 0.743 | 0.634
NCI-H1437 | 0.324 | 0.256 | 0.304 | 0.246 | 0.989 | 1 | 0.657 | 0.244 | 0.419 | 0.384 | 0.416 | 0.416 | 0.288 | 0.421 | 0.142 | 0.536 | 0.524 | 0.626 | 0.393 | 0.291
NCI-H1651 | 0.556 | 0.52 | 0.533 | 0.516 | 1.14 | 0.885 | 0.91 | 0.396 | 0.833 | 0.643 | 0.698 | 0.456 | 0.35 | 0.612 | 0.13 | 0.658 | 0.564 | 0.577 | 0.501 | 0.445
NCI-H1666 | 0.602 | 0.566 | 0.634 | 0.717 | 0.927 | 0.82 | 0.656 | 0.611 | 0.681 | 0.641 | 0.581 | 0.913 | 0.788 | 0.829 | – | 0.834 | 0.774 | 0.727 | 0.616 | 0.503
